Values of other authors as cited in patent US5932763A, “Inhibition of matrix metalloproteases by 2-(ω-arolalkyl)-4-biaryl-4-oxobutyric acids” (Bayer Corporation, priority 1997, dated 1999).

Legend:
[1] = Child, et al., J. Pharm. Sci., 66, 466, 1977
[2] = tested on: human ovarian carcinoma xenografts; conditions: mouse, in vivo
[3] = tested on: human colon tumor; conditions: given intraperitoneally; orthotopic model in nude mice

Structure (SMILES) | activity of fenbufen analogs (described as inactive) [1] | survival of mice bearing human ovarian carcinoma xenografts [2] | human colon tumor growth and spread [3]
CC(CC(=O)c1ccc(-c2ccccc2)cc1)C(=O)O (centres unmarked) [XLVII] | inactive | – | –
O=C(CC(C(=O)O)c1ccccc1)c1ccc(-c2ccccc2)cc1 (centres unmarked) [XLIX] | inactive | – | –
CNC(=O)[C@H](Cc1ccccc1)NC(=O)[C@H](CC(C)C)[C@H](CSc1cccs1)C(=O)NO [batimastat] | – | prolongs the survival | inhibits human colon tumor growth and spread
O=C(O)CC(C(=O)c1ccc(-c2ccccc2)cc1)c1ccccc1 (centres unmarked) [LXXVII] | inactive | – | –
